Columns and labels:
VIM-2 = VIM-2 (Escherichia coli, UniProt Q5U7L7); assay: MBL inhibition, FC-5 fluorescence assay, VIM-2; assay type: biochemical; conditions: FC-5 cephalosporin substrate, ranges of obtained pIC50, read-out: pIC50 VIM-2 (converted)
Method: (§1) Inhibitors were tested using a panel of the clinically relevant B1 MBLs (NDM-1, VIM-1, -2 and IMP-1). Activities were assayed by monitoring the release of a fluorophore following the enzymatic breakdown of the cephalosporin FC-5 (https://pubs.acs.org/doi/abs/10.1021/jm400769b). FC-5 assays were conducted in clear bottomed 384 black well microplates (Greiner); the initial rate of reaction was assessed by monitoring the fluorescence intensity (λex=380 nm and λem=460 nm) using a Pherstar FS (BMG LabTech) plate reader. Initial rates of reaction were determined and dose-response analyses conducted in GraphPad Prism. Dose-response curves were fitted using the log(inhibitor) vs normalized response—variable slope model of GraphPad Prism 12. Each concentration point for routine screening was conducted with 4 intra-plate replicates.

IMP-1 = IMP-1 (Serratia marcescens, UniProt P52699); assay: MBL inhibition, FC-5 fluorescence assay, IMP-1; assay type: biochemical; conditions: FC-5 cephalosporin substrate, fluorescence; ranges of obtained pIC50; read-out: pIC50 IMP-1 (converted)
Sequence of IMP-1 (P52699 19-246, looked up, species assumed): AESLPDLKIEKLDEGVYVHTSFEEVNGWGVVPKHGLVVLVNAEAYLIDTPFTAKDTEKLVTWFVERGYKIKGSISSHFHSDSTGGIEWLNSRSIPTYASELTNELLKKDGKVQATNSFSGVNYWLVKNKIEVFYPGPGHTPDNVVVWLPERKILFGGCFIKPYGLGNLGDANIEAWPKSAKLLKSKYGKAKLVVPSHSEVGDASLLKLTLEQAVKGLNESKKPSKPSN
Method: as §1

NDM-1 = NDM-1 (Klebsiella pneumoniae, UniProt C7C422); assay: MBL inhibition, FC-5 fluorescence assay, NDM-1; assay type: biochemical; conditions: FC-5 cephalosporin substrate, fluorescence; ranges of obtained pIC50; read-out: pIC50 NDM-1 (converted)
Sequence of NDM-1 (C7C422 29-270, looked up, species assumed): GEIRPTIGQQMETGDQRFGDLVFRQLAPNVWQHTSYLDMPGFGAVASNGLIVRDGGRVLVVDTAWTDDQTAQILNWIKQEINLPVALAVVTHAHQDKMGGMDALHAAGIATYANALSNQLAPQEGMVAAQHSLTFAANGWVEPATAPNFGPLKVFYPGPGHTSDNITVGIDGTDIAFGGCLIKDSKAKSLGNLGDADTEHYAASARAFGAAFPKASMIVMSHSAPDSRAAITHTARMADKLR
Method: as §1

VIM-1 = VIM-1 (Pseudomonas aeruginosa, UniProt A0A0F7KYQ8); assay: MBL inhibition, FC-5 fluorescence assay, VIM-1; assay type: biochemical; conditions: FC-5 cephalosporin substrate, ranges of obtained pIC50, read-out: pIC50 VIM-1 (converted)
Method: as §1

Escherichia coli NDM-7 = assay: Antibiotic susceptibility testing (MIC), EC NDM-7; assay type: cell-based; conditions: agar or broth dilution (CLSI/EUCAST)
Method: (§2) Antibiotic susceptibility testing was performed using the agar or broth dilution method, in line with the Clinical and Laboratory Standards Institute (CLSI) and European Committee on Antimicrobial Susceptibility Testing (EUCAST) requirements.

Escherichia coli NDM-1 = assay: Antibiotic susceptibility testing (MIC), EC NDM-1; assay type: cell-based; conditions: agar or broth dilution (CLSI/EUCAST)
Method: as §2

[1] = tested on: Acinetobacter baumannii NDM-1; assay: Antibiotic susceptibility testing (MIC), AB NDM-1; assay type: cell-based; conditions: agar or broth dilution (CLSI/EUCAST)
Method: as §2

[2] = Plasma protein binding, equilibrium dialysis, human plasma; assay type: in vitro ADME; conditions: pH 7.4, equilibrium dialysis (RED) 4 hours at 37° C., read-out: Plasma protein binding, fu, Human
Method: The fraction of unbound compound (fu) in plasma from human or other animal species was determined by equilibrium dialysis at 37° C. for 4 hours using the Rapid Equilibrium Dialysis (RED) device (ThermoFisher Scientific). The test compound at a concentration of 10 μM was added to plasma and dialyzed against isotonic phosphate buffer (67 mM, pH 7.4) over 4 hours at 37° C. After dialysis, compound concentrations in buffer and plasma were quantified by LC-MS/MS. In parallel the stability of the compound in plasma was determined by incubating drug-spiked plasma (10 μM) at 37° C. for 4 hours, meanwhile the control plasma sample was kept in the freezer. The concentration of the compound in both samples was quantified by LC-MS/MS (Waters Corp, Milford, MA, USA).

## COc1cc(-c2c(C(=O)O)[nH]c3c([C@H](C)N4C[C@]5(C[C@@H](CN)C5)OC4=O)cccc23)cnc1O [IC-25, 7-((S)-1-((2S,4r)-2-(aminomethyl)-6-oxo-5-oxa-7-azaspiro[3.4]octan-7-yl)ethyl)-3-(6-hydroxy-5-methoxypyridin-3-yl)-1H-indole-2-carboxylic acid]
VIM-2
  IC50: 0.1 to 1 nM
IMP-1
  IC50: > 10 nM
NDM-1
  IC50: > 10 nM
VIM-1
  IC50: > 10 nM
Escherichia coli NDM-7
  MIC values EC NDM-7: B (B MIC values 2 ÷ 8)
Escherichia coli NDM-1
  MIC values EC NDM-1: C (C = MIC values > 8)
[1]
  MIC values AB NDM-1: C (C = MIC values > 8)
[2]
  fraction unbound at 4 h, 10 μM: > 0.25

## C[C@@H](c1cccc2c(-c3c[nH]c(=O)c(F)c3)c(C(=O)O)[nH]c12)N1C[C@]2(C[C@@H](CN)C2)OC1=O [IC-26, 7-((1S)-1-(2-(aminomethyl)-6-oxo-5-oxa-7-azaspiro[3.4]octan-7-yl)ethyl)-3-(5-fluoro-6-oxo-1,6-dihydropyridin-3-yl)-1H-indole-2-carboxylic acid]
VIM-2
  IC50: 0.1 to 1 nM
IMP-1
  IC50: > 10 nM
NDM-1
  IC50: 1 to 10 nM
VIM-1
  IC50: > 10 nM
Escherichia coli NDM-7
  MIC values EC NDM-7: A (A = MIC values ≤ 1)
Escherichia coli NDM-1
  MIC values EC NDM-1: B (B MIC values 2 ÷ 8)
[1]
  MIC values AB NDM-1: C (C = MIC values > 8)
[2]
  fraction unbound at 4 h, 10 μM: 0.05 to 0.25

## COc1ncc(-c2c(C(=O)O)[nH]c3c([C@H](C)N4C[C@]5(C[C@@H](CN)C5)OC4=O)cccc23)cc1O [IC-27, (S)-7-(1-(2-(aminomethyl)-6-oxo-5-oxa-7-azaspiro[3.4]octan-7-yl)ethyl)-3-(5-hydroxy-6-methoxypyridin-3-yl)-1H-indole-2-carboxylic acid]
VIM-2
  IC50: < 0.1 nM
IMP-1
  IC50: > 10 nM
NDM-1
  IC50: 0.1 to 1 nM
VIM-1
  IC50: 1 to 10 nM
Escherichia coli NDM-7
  MIC values EC NDM-7: A (A = MIC values ≤ 1)
Escherichia coli NDM-1
  MIC values EC NDM-1: B (B MIC values 2 ÷ 8)
[1]
  MIC values AB NDM-1: B (B MIC values 2 ÷ 8)
[2]
  fraction unbound at 4 h, 10 μM: 0.05 to 0.25

## C[C@@H](c1cccc2c(-c3cnn(C)c(=O)c3)c(C(=O)O)[nH]c12)N1C[C@]2(C[C@@H](CN)C2)OC1=O [IC-28, 7-((S)-1-((2S,4r)-2-(aminomethyl)-6-oxo-5-oxa-7-azaspiro[3.4]octan-7-yl)ethyl)-3-(1-methyl-6-oxo-1,6-dihydropyridazin-4-yl)-1H-indole-2-carboxylic acid]
VIM-2
  IC50: 0.1 to 1 nM
IMP-1
  IC50: > 10 nM
NDM-1
  IC50: 1 to 10 nM
VIM-1
  IC50: 1 to 10 nM
Escherichia coli NDM-7
  MIC values EC NDM-7: A (A = MIC values ≤ 1)
Escherichia coli NDM-1
  MIC values EC NDM-1: B (B MIC values 2 ÷ 8)
[1]
  MIC values AB NDM-1: C (C = MIC values > 8)
[2]
  fraction unbound at 4 h, 10 μM: 0.05 to 0.25

## C[C@@H](c1cccc2c(-c3cnc(O)c(O)c3)c(C(=O)O)[nH]c12)N1C[C@]2(C[C@@H](CN)C2)OC1=O [IC-29, 7-((S)-1-((2S,4r)-2-(aminomethyl)-6-oxo-5-oxa-7-azaspiro[3.4]octan-7-yl)ethyl)-3-(5,6-dihydroxypyridin-3-yl)-1H-indole-2-carboxylic acid]
VIM-2
  IC50: 1 to 10 nM
IMP-1
  IC50: > 10 nM
NDM-1
  IC50: > 10 nM
VIM-1
  IC50: > 10 nM
Escherichia coli NDM-7
  MIC values EC NDM-7: A (A = MIC values ≤ 1)
Escherichia coli NDM-1
  MIC values EC NDM-1: B (B MIC values 2 ÷ 8)
[1]
  MIC values AB NDM-1: C (C = MIC values > 8)
[2]
  fraction unbound at 4 h, 10 μM: 0.005 to 0.05

## C[C@@H](c1cccc2c(-c3ccn(C)c(=O)c3)c(C(=O)O)[nH]c12)N1C[C@]2(C[C@@H](CN)C2)OC1=O [IC-32, 3-(1-methyl-2-oxo-1,2-dihydropyridin-4-yl)-7-[(1S)-1-[(2r,4r)-2-(aminomethyl)-6-oxo-5-oxa-7-azaspiro[3.4]octan-7-yl]ethyl]-1H-indole-2-carboxylic acid]
VIM-2
  IC50: 0.1 to 1 nM
IMP-1
  IC50: > 10 nM
NDM-1
  IC50: 0.1 to 1 nM
VIM-1
  IC50: 1 to 10 nM
Escherichia coli NDM-7
  MIC values EC NDM-7: A (A = MIC values ≤ 1)
Escherichia coli NDM-1
  MIC values EC NDM-1: B (B MIC values 2 ÷ 8)
[1]
  MIC values AB NDM-1: B (B MIC values 2 ÷ 8)
[2]
  fraction unbound at 4 h, 10 μM: > 0.25

## C[C@@H](c1cccc2c(-c3cn[nH]c(=O)c3)c(C(=O)O)[nH]c12)N1C[C@]2(C[C@@H](CN)C2)OC1=O [IC-33, 3-(6-oxo-1,6-dihydropyridazin-4-yl)-7-[(1S)-1-[(2r,4r)-2-(aminomethyl)-6-oxo-5-oxa-7-azaspiro[3.4]octan-7-yl]ethyl]-1H-indole-2-carboxylic acid]
VIM-2
  IC50: 0.1 to 1 nM
IMP-1
  IC50: > 10 nM
NDM-1
  IC50: 1 to 10 nM
VIM-1
  IC50: 1 to 10 nM
Escherichia coli NDM-7
  MIC values EC NDM-7: A (A = MIC values ≤ 1)
Escherichia coli NDM-1
  MIC values EC NDM-1: A (A = MIC values ≤ 1)
[1]
  MIC values AB NDM-1: B (B MIC values 2 ÷ 8)
[2]
  fraction unbound at 4 h, 10 μM: 0.05 to 0.25

## C[C@@H](c1cccc2c(-c3ccnc(N)c3)c(C(=O)O)[nH]c12)N1C[C@]2(C[C@@H](CN)C2)OC1=O [IC-34, 3-(2-Aminopyridin-4-yl)-7-[(1S)-1-[(2r,4r)-2-(aminomethyl)-6-oxo-5-oxa-7-azaspiro[3.4]octan-7-yl]ethyl]-1H-indole-2-carboxylic acid]
VIM-2
  IC50: 1 to 10 nM
IMP-1
  IC50: > 10 nM
NDM-1
  IC50: > 10 nM
VIM-1
  IC50: 1 to 10 nM
Escherichia coli NDM-7
  MIC values EC NDM-7: A (A = MIC values ≤ 1)
Escherichia coli NDM-1
  MIC values EC NDM-1: B (B MIC values 2 ÷ 8)
[1]
  MIC values AB NDM-1: C (C = MIC values > 8)
[2]
  fraction unbound at 4 h, 10 μM: > 0.25

## CNc1cc(-c2c(C(=O)O)[nH]c3c([C@H](C)N4C[C@]5(C[C@@H](CN)C5)OC4=O)cccc23)ccn1 [IC-35, 3-[2-(methylamino)pyridin-4-yl]-7-[(1S)-1-[(2r,4r)-2-(aminomethyl)-6-oxo-5-oxa-7-azaspiro[3.4]octan-7-yl]ethyl]-1H-indole-2-carboxylic acid]
VIM-2
  IC50: 0.1 to 1 nM
IMP-1
  IC50: > 10 nM
NDM-1
  IC50: > 10 nM
VIM-1
  IC50: 1 to 10 nM
Escherichia coli NDM-7
  MIC values EC NDM-7: A (A = MIC values ≤ 1)
Escherichia coli NDM-1
  MIC values EC NDM-1: A (A = MIC values ≤ 1)
[1]
  MIC values AB NDM-1: C (C = MIC values > 8)
[2]
  fraction unbound at 4 h, 10 μM: > 0.25

## C[C@@H](c1cccc2c(-c3ccc(CS(C)(=O)=O)c(F)c3)c(C(=O)O)[nH]c12)N1CC2(CNC2)OC1=O [IC-65, (S)-3-(3-fluoro-4-((methylsulfonyl)methyl)phenyl)-7-(1-(6-oxo-5-oxa-2,7-diazaspiro[3.4]octan-7-yl)ethyl)-1H-indole-2-carboxylic acid]
VIM-2
  IC50: 0.1 to 1 nM
IMP-1
  IC50: > 10 nM
NDM-1
  IC50: 0.1 to 1 nM
VIM-1
  IC50: 1 to 10 nM
Escherichia coli NDM-7
  MIC values EC NDM-7: A (A = MIC values ≤ 1)
Escherichia coli NDM-1
  MIC values EC NDM-1: A (A = MIC values ≤ 1)
[1]
  MIC values AB NDM-1: B (B MIC values 2 ÷ 8)

## C/C(=C\C(=O)NCCc1c[nH]cn1)c1cccc2c(-c3ccc(CS(C)(=O)=O)c(F)c3)c(C(=O)O)[nH]c12 [IC-103, 3-[3-Fluoro-4-(methanesulfonylmethyl)phenyl]-7-[(1E)-1-{[2-(1H-imidazol-4-yl)ethyl]carbamoyl}prop-1-en-2-yl]-1H-indole-2-carboxylic acid]
VIM-2
  IC50: > 10 nM
IMP-1
  IC50: > 10 nM
NDM-1
  IC50: > 10 nM
VIM-1
  IC50: > 10 nM
Escherichia coli NDM-7
  MIC values EC NDM-7: C (C = MIC values > 8)
Escherichia coli NDM-1
  MIC values EC NDM-1: C (C = MIC values > 8)
[1]
  MIC values AB NDM-1: C (C = MIC values > 8)

## C/C(=C\C(=O)N1CCOCC1)c1cccc2c(-c3ccc(CS(C)(=O)=O)c(F)c3)c(C(=O)O)[nH]c12 [IC-105, 3-[3-Fluoro-4-(methanesulfonylmethyl)phenyl]-7-[(2E)-4-(morpholin-4-yl)-4-oxobut-2-en-2-yl]-1H-indole-2-carboxylic acid]
VIM-2
  IC50: > 10 nM
IMP-1
  IC50: > 10 nM
NDM-1
  IC50: > 10 nM
VIM-1
  IC50: > 10 nM
Escherichia coli NDM-7
  MIC values EC NDM-7: C (C = MIC values > 8)
Escherichia coli NDM-1
  MIC values EC NDM-1: C (C = MIC values > 8)
[1]
  MIC values AB NDM-1: C (C = MIC values > 8)

## C=C(CC(=O)NCCc1c[nH]cn1)c1cccc2c(-c3ccc(CS(C)(=O)=O)c(F)c3)c(C(=O)O)[nH]c12 [IC-106, 7-(4-((2-(1H-Imidazol-4(5)-yl)ethyl)amino)-4-oxobut-1-en-2-yl)-3-(3-fluoro-4-((methylsulfonyl)-methyl)phenyl)-1H-indole-2-carboxylic acid]
VIM-2
  IC50: > 10 nM
IMP-1
  IC50: > 10 nM
NDM-1
  IC50: > 10 nM
VIM-1
  IC50: > 10 nM
Escherichia coli NDM-7
  MIC values EC NDM-7: C (C = MIC values > 8)
Escherichia coli NDM-1
  MIC values EC NDM-1: C (C = MIC values > 8)
[1]
  MIC values AB NDM-1: C (C = MIC values > 8)
